Source: PMC6153414 (Protein Science : A Publication of the Protein Society, 2018)

Columns and labels:
DotBL = molecular target: T1, DotBL (Legionella pneumophila, UniProt O52185)
T1 construct: gene dotB

[1] = molecular target: DotB from the dot/icm system encoded by the L. pneumophila genome (DotBL), wild type (L. pneumophila) (UniProt Q5ZS43); experiment: SEC-MALS

Nc1ncnc2c1ncn2[C@@H]1O[C@H](COP(=O)(O)OP(=O)(O)NP(=O)(O)O)[C@@H](O)[C@H]1O [AMP–PNP]
malachite green phosphate release, inhibition after 10 min preincubation (DotBL): the analogue binds and competes with ATP resulting in an inhibition of phosphate release

DotB from the dot/icm system encoded by the L. pneumophila genome (DotBL), wild type (from UniProt Q5ZS43 1-387) (enzyme)
stoichiometry N [1]: 6
